Experiment [1] concerns the target T1, Cdc7/ASK (Homo sapiens, UniProt O00311). Kind of experiment: Cdc7 biochemical assay Method 1: 384 well ELISA, MCM2 whole protein substrate, Phospho MCM2 (S53) antibody. On the set-up: purchased. The note with it: ATP 2 μM, 90 minutes, read-out: Biochemical method 1 (pIC50) (converted). The method, then:
This protocol describes a method for assaying Cdc7/ASK for activity. The assay is a 384 well ELISA assay, utilising a whole protein substrate (MCM2) and an antibody against Phospho MCM2 (S53). This site is thought to be specific to Cdc7/ASK phosphorylation and the assay has been validated using knockout mutants.
• TBS: 25 mM Tris pH 7.2, 150 mM NaCl. (Dilute 10× stock by 1:10). • Wash Buffer: TBS+0.05% Tween 20. (Add 100 mL 1 M Tris pH 7.2, 120 mL 5 M NaCl and 2 mL 100% Tween 20 per 4 L). • Kinase Reaction Buffer: 50 mM Tris-HCl pH 8.5, 10 mM MgCl2, 1 mM DTT. (Dilute 10× stock by 1:10 and add 100 μL 1M DTT per 100 mL prior to assay). • Diethanolamine Buffer: 1 M diethanolamine pH 9.8, 0.5 mM MgCl2. • Stop Solution: 1 M NaOH. • MCM2 was expressed and purified in-house and used in the assay at a final assay concentration of 436 ng/well. • Cdc7/ASK is purchased from commercial suppliers and used in the assay at a final assay concentration of 37.97 ng/well or 20.63 nM. • ATP used as a final assay concentration of 2 μM. • Primary Antibody: Rabbit anti-Phospho MCM2 (S53 Antibody (BL3353)), is purchased from commercial suppliers at 0.2 mg/mL and used at a final assay concentration by diluting 1:800 in TBS. • Secondary Antibody: Anti-Rabbit/AP Antibody is supplied is purchased from commercial suppliers at 1 mg/mL and used at a final assay concentration by diluting 1:2000 in TBS. • Development Reagent: Dissolve one 20 mg PNPP tablet (Sigma, product N2765, 20 mg per tablet) per 20 mL diethanolamine Buffer (or one 5 mg PNPP tablet per 5 mL diethanolamine buffer). Cover in foil and leave shaking on a roller shaker at room temperature for up to an hour to dissolve. Methods • 1. Add 20 μL 1× working stock of Substrate (MCM2) in TBS to all wells of a clear, 384 well, Nickel-chelate microplate to give a final concentration of 250 ng/well. Incubate at room temperature for at least 1 hour. Plates can be pre-coated for 1 hour and stored at 4° C. for up to 8 days. • 2. Wash with TBS+0.05% Tween 20 (80 μL x 3). • 3. Add 2 μL 10× test compounds, including the positive control, in 40% DMSO/water to ‘test’ wells. Add 2 μL 40% DMSO/water to ‘control’ and ‘blank’ wells. The final DMSO concentration will be 4%. • 4. Add 13 μL CDCl7/ASK Kinase (1.5× stock) in Kinase Reaction Buffer to ‘test’ and ‘control’ wells to give a final concentration of […]. Add 13 μL Kinase Reaction Buffer to ‘blank’ wells. • 5. Add 5 μL ATP (4× stock) in Kinase Reaction Buffer to all wells to give a final concentration of 2 μM. • 6. Incubate at room temperature for 90 minutes. • 7. Wash with TBS+0.05% Tween 20 (80 μL x 3). • 8. Add 20 μL 1× working solution of Primary Antibody in TBS to all wells. Incubate at room temperature for 30 minutes. • 9. Wash with TBS+0.05% Tween 20 (80 μL x 3). • 10. Add 20 μL 1× working solution of Secondary Antibody in TBS to all wells. Incubate at room temperature for 30 minutes. • 11. Wash with TBS+0.05% Tween 20 (80 μL x 3). • 12. Add 20 μL 1× Development Reagent to all wells. • 13. Incubate at room temperature for 2 hours. Stop the reaction by adding 20 μL Stop Solution to all wells and record Absorbance on a Pherastar plate reader.
Percentage inhibition values were calculated from absorbance values, using the no compound (DMSO) and no enzyme control values as 0% and 100% inhibition, respectively. IC50 determination was performed with ExcelFit software (IDBS) using curve fit 205. Z′ factors were determined for each plate tested and were all above 0.5.

Experiment [2] deals with T2, Cdc7 (Homo sapiens, UniProt O00311). Kind of experiment: Cdc7 cell pharmacodynamics assay Method 1: pS53MCM2 levels in HCT116 cells. It is filed as cell-based. On the set-up: endogenous in cells. To be noted: 6 hours treatment, read-out: Biomarker Method 1 (pEC50) (converted). The text has this: This protocol describes a method to investigate the inhibition of Cdc7 activity of compounds by measuring pS53MCM2 levels in cells after treatment.
• HCT116 cells (wild type P53 positive) • McCoys 5A media (PAA Laboratories Ltd, E15-022) • 10% FCS (Sera Laboratories International Ltd, EU000F Batch: 108005) • 100× L-Glutamine (Invitrogen, 25030-024) • D-PBS without CaCl2 and MgCl2 (Invitrogen, ref. 14190-094) • Trypsin/EDTA (Invitrogen 25300-054) • 2% BSA in PBS • Cell Extraction Buffer (Invitrogen FNN0011) • Protease inhibitor cocktail (Sigma P-2714) • PMSF 0.3M stock in DMSO (Sigma P7626) • Antibody—rabbit pMCM2 Ser53 (Bethyl #A300-756A) • Antibody—goat MCM2 (Bethyl #A300-122A) • Antibody—goat Anti Rabbit IgG HRP (Perbio Science UK Ltd 31462) • 1×PBS • FACE Wash buffer (0.02% Triton X100 in 1×PBS) • SuperSignal ELISA Pico Chemiluminescent Substrate (Perbio Science UK Ltd 37070) Method • 72 hours prior to the start of the experiment plate 1×10^6 HCT116 cells in a 150 cm^2 flask in complete McCoys 5A media (+10% FCS+1× L-glutamine). • Plate 20,000 HCT116 cells per well in standard TC treated 96 well plate in 100 μL complete McCoys 5A media. • Allow cells to settle overnight in incubator set at 37° C. and 5% CO2. • Remove intermediate plate from fridge and place at 37° C. overnight to allow to equilibrate. • Cell treatment: cell assay plate 100 μL; daughter to cell transfer volume 3.33 μL; daughter volume 45 μL; mother plate to daughter volume 5 μL. • Once all cells are treated remove the cells to the incubator and incubate for 6 hours. • Dilute the capture antibody (total MCM2 #A300-122A) 1 in 250 in the required volume of PBS (5 mL per assay plate) and add 50 μL to each well of a Hybond plate excluding wells 12E to 12H. In these wells add 50 μL PBS. Seal the plate and incubate at room temperature fora minimum of 2 hours. • Defrost aliquot of Invitrogen Cell Extraction Buffer (FNN0011) on ice and supplement with appropriate volume of both Sigma protease inhibitor cocktail (P-2714) and PMSF (final cone 1 mM from a […] in DMSO). • After the 6 hour cell treatment time tap out the media from the assay plates and place them in the −70° C. freezer for at least 5 minutes. • Remove plates from freezer and add 20 μL of ice cold complete lysis buffer on ice. Incubate cells for 30 minutes at 4° C. • Add 80 μL per well 2% BSA. • Transfer 80 μL from the lysis plate to the same wells in the capture/ELISA plate. Cover with plate seal and incubate plates overnight at 4° C. • Wash plates with PBS, remove any residual remaining liquid and add 50 μL per well of pMCM2 Ser53 antibody (#A300-756A) diluted 1 in 100 in 2% BSA. Cover plate and incubate at room temperature for 2 hours with gentle shaking. • Wash plates with PBS, remove any residual remaining liquid and Incubate with 50 μL goat anti rabbit antibody (1 in 800 dilution in 2% BSA) for 1 hour at room temperature. • Wash plates with PBS, remove any residual remaining liquid and add 50 μL mixed SuperSignal Pico substrate. • Incubate each plate for 5 minutes at room temperature shielding the plates from direct light (with a cover plate). Read plates with the luminescent detection. Method 2

Experiment [3] addresses T1, Cdc7/ASK. Kind of experiment: Cdc7 biochemical assay Method 3: off-chip mobility shift assay (MSA) run at Carna Biosciences. On the set-up: purchased Carna Biosciences; host or cells: baculovirus expression system. The note with it: MCM2 peptide 1000 nM, ATP 5 μM, 5 hours, read-out: Biochemical method 3 (pIC50) (converted). The method, then: This protocol describes a method for assaying Cdc7/ASK for activity. The assay is an off-chip mobility shift assay (MSA) run at Carna Biosciences.
The test compound was dissolved in and diluted with dimethylsulfoxide (DMSO) to achieve 100-fold higher concentration which was specified by the sponsor. Then the solution was further 25-fold diluted with assay buffer to make the final test compound solution. Reference compounds for assay control were prepared similarly. 2. Kinase Cdc7/ASK: Full-length human Cdc7 [1-574(end) amino acids of accession number NP_003494.1] was co-expressed as N-terminal GST-fusion protein (92 kDa) with Dbf4(ASK) [1-674(end) amino acids of accession number NP_006707.1] using baculovirus expression system. GST-Cdc7 was purified by using glutathione sepharose chromatography. 3. Assay Reagents and Procedures Off-Chip Mobility Shift Assay (MSA) • 1) The […] were prepared with assay buffer (20 mM HEPES, 0.01% Triton X-100, 1 mM DTT, pH 7.5) and mixed and incubated in a well of polypropylene 384 well microplate for 5 hours at room temperature. • 2) […] of Termination Buffer (QuickScout Screening Assist MSA; Carna Biosciences) was added to the well. • 3) The reaction mixture was applied to LabChip system (Perkin Elmer), and the product and substrate peptide peaks were separated and quantitated. • 4) The kinase reaction was evaluated by the product ratio calculated from peak heights of product (P) and substrate (S) peptides (P/(P+S)). 4. Reaction Conditions
5. Data Analysis The readout value of reaction control (complete reaction mixture) was set as a 0% inhibition, and the readout value of background (Enzyme(−)) was set as a 100% inhibition, then the percent inhibition of each test solution was calculated. IC50 value was calculated from concentration vs. % Inhibition curves by fitting to a four parameter logistic curve. Results

Experiment [4] has as its target T2, Cdc7. Kind of experiment: Cdc7 cell pharmacodynamics assay Method 3: pS53MCM2 levels in SW48 cells. On the set-up: endogenous in cells; host or cells: SW48. It is filed as cell-based. The note with it: 6 hours treatment, read-out: Biomarker Method 3 (pEC50) (converted). An excerpt: This protocol describes a method to investigate the inhibition of Cdc7 activity by measuring pS53MCM2 levels in cells, after treatment with compounds.
• SW48 cells • RPMI 1640 (Sigma, R5886) • 10% FCS (Sera Laboratories International Ltd, EU000F Batch: 108005) • 100× L-Glutamine (Invitrogen, 25030-024) • D-Glucose Solution (10%) (Sigma, G8644) • HEPES Buffer Solution (Sigma, 83264) • Sodium Pyruvate (Sigma, S8636) • PBS (Fisger, BP399-4) • Trypsin/EDTA (Invitrogen 25300-054) • 2% BSA in PBS • Cell Extraction Buffer (Invitrogen FNN0011) • Protease inhibitor cocktail (Sigma P-2714) • PMSF 0.3M stock in DMSO (Sigma P7626) • Antibody—rabbit pMCM2 Ser53 (Bethyl #A300-756A) • Antibody—goat MCM2 (Bethyl #A300-122A) • Antibody—goat Anti Rabbit IgG HRP (Perbio Science UK Ltd 31462) • SuperSignal ELISA Pico Chemiluminescent Substrate (Perbio Science UK Ltd 37070) Method • Plate 30,000 SW48 cells per well in standard TC treated 96 well plate in 100 μL complete RPMI 1640 medium. • Allow cells to settle overnight in incubator set at 37° C. and 5% CO2. • Cell treatment: prepare a 384 well plate containing 80 μl PBS/well. The PBS should be at room temperature—to be referred to as intermediate plate. Transfer 2 μL of compound from mother plate to intermediate (daughter plate) 1:40 dilution, then 5 μL intermediate to cell (daughter) plate. • Once all cells are treated place the cells back to the incubator and incubate for 6 hours. • Dilute the capture antibody (total MCM2 #A300-122A) 1 in 250 in the required volume of PBS (5 mL per assay plate, plus 5 mL for dead volume) and add 50 μL to each well of a Hybond plate. Seal the plate and incubate at room temperature for a minimum of 2 hours. • Defrost aliquot of Invitrogen Cell Extraction Buffer (FNN0011) on ice and supplement with appropriate volume of both Sigma protease inhibitor cocktail (P-2714) and PMSF (final cone 1 mM from a 1 M stock in DMSO). • After the 6 hour cell treatment time, tap out the media from the assay plates and place them in the −80° C. freezer for at least 5 minutes. • Remove plates from freezer and add 20 μL of ice cold complete lysis buffer, with the multidrop. Incubate cells for 30 minutes at 4° C. • Add 80 μL per well 2% BSA. • Flick out the remaining liquid from the capture plate and transfer 80 μL from the lysis plate to the same wells in the capture/ELISA plate, using the Biomek. Cover with plate seal and incubate plates overnight at 4° C. • Wash plates with PBS, remove any residual remaining liquid and add 50 μL per well of pMCM2 Ser53 antibody (#A300-756A) diluted 1 in 100 in 2% BSA. Cover plate and incubate at room temperature for 2 hours with gentle shaking. • Wash plates with PBS, remove any residual remaining liquid and Incubate with 50 μL goat anti rabbit antibody (1 in 800 dilution in 2% BSA), for 1 hour at room temperature. • Wash plates with PBS, remove any residual remaining liquid and add 50 μL mixed SuperSignal Pico substrate. • Incubate each plate for 5 minutes at room temperature shielding the plates from direct light (with a cover plate). Read plates with the luminescent detection. Results

T1 sequence (O00311 whole entry): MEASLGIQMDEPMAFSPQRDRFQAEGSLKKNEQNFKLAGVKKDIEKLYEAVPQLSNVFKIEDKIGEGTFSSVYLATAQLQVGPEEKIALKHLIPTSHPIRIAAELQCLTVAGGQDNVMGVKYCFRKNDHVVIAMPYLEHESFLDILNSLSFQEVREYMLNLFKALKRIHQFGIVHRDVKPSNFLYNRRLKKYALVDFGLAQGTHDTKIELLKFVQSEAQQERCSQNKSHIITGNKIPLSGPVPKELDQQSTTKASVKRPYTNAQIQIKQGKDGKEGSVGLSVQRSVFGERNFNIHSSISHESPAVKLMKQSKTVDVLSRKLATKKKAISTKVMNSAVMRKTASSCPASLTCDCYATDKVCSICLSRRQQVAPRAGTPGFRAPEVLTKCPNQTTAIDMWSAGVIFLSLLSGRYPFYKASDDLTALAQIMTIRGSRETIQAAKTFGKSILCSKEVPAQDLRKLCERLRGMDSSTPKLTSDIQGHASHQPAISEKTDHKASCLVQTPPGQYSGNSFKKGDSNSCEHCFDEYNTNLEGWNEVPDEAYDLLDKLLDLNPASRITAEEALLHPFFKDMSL
T1 sequence (Q9UBU7 whole entry partner): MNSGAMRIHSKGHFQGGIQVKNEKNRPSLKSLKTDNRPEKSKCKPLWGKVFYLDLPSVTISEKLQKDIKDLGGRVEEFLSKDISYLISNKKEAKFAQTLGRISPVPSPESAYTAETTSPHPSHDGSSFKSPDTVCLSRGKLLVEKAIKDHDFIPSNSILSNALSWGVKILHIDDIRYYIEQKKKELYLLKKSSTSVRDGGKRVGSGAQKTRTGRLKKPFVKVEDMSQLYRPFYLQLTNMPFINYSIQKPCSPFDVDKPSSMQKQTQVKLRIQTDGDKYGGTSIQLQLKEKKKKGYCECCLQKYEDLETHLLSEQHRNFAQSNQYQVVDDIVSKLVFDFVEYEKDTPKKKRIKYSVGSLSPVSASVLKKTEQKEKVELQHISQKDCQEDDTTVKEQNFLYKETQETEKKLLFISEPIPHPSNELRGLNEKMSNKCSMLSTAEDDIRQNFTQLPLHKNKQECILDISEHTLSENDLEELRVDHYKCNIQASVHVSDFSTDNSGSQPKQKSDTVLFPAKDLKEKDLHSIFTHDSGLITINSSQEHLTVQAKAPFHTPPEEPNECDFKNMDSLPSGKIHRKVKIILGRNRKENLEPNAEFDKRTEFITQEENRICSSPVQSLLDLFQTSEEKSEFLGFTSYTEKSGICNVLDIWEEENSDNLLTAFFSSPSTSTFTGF
T2 sequence (O00311 whole entry): as the sequence (O00311 whole entry) above
T2 sequence (Q9UBU7 whole entry partner): as the sequence (Q9UBU7 whole entry partner) above

On to `Cc1ncsc1-c1nc(C2CCNCC2)c(Cl)c(=O)[nH]1` [Compound 2, 5-chloro-2-(4-methylthiazol-5-yl)-4-(4-piperidyl)-1H-pyrimidin-6-one], for which the IC50 at Cdc7/ASK [1] is 3.16 nM. The EC50 on Cdc7 [2] is 2000 nM.
In the case of `O=c1[nH]c(-c2scnc2Cl)nc(N2CCNCC2C(F)F)c1Cl` (stereo not drawn) [Compound 67, 5-chloro-2-(4-chlorothiazol-5-yl)-4-[2-(difluoromethyl)piperazin-1-yl]-1H-pyrimidin-6-one], the IC50 on Cdc7/ASK [3] is 6.03 nM. Also, the EC50 at Cdc7 [4] was 97.7 nM.
For `O=c1[nH]c(-c2scnc2Cl)nc(N2CCNCC2C(F)(F)F)c1Cl` (stereo not drawn) [Compound 68, 5-chloro-2-(4-chlorothiazol-5-yl)-4-[2-(trifluoromethyl)piperazin-1-yl]-1H-pyrimidin-6-one], the IC50 on Cdc7/ASK [3] is 6.92 nM. The EC50 on Cdc7 [4] was 200 nM.

The values are drawn from patent US11766434B2, “Pyrimidinone derivatives as CDC7 inhibitors” (Cancer Research Technology Limited, priority 2016, dated 2023).
